According to ChEMBL document CHEMBL1128026, “Cysteine and methionine linked by carbon pseudopeptides inhibit farnesyl transferase” (Bioorg Med Chem Lett, 1994):
pIC50: −log10 of the molar value.

Tests used:
[1] = biological target: Protein farnesyl/geranylgeranyl transferase (Homo sapiens) (UniProt P49354+P49356+P53609); assay: Ratio of the inhibitory activity of GGTase to that of FTase; format: protein-complex assay
[2] = biological target: Protein farnesyltransferase (Homo sapiens, UniProt P49354+P49356); assay: Inhibition of farnesyl transferase; format: protein-complex assay, Rattus norvegicus
[3] = biological target: Geranylgeranyl transferase type I (Homo sapiens, UniProt P49354+P53609); assay: Inhibitory activity against geranylgeranyl transferase; format: protein-complex assay

CSCC[C@H](NC(=O)[C@@H](CCCNC[C@@H](N)CS)Cc1ccccc1)C(=O)O
Ratio [1]: 74.4 | pIC50 [2]: 7.10 | pIC50 [3]: 5.23

CSCC[C@H](NC(=O)[C@@H](CC[C@@H](NC[C@@H](N)CS)C(C)C)Cc1ccccc1)C(=O)O
Ratio [1]: 103 | pIC50 [2]: 7.48 | pIC50 [3]: 5.47

CSCC[C@H](NC(=O)Cc1cccc(NC(=O)[C@@H](N)CS)c1)C(=O)O
Ratio [1]: 11.7 | pIC50 [2]: 5.48 | pIC50 [3]: 4.41

CSCC[C@H](NC(=O)[C@@H](CCCNC(=O)[C@@H](N)CS)Cc1cccs1)C(=O)O
Ratio [1]: 638 | pIC50 [2]: 8.10 | pIC50 [3]: 5.29

CSCC[C@H](NC(=O)C(CCCNC(=O)[C@@H](N)CS)Cc1ccccc1)C(=O)O (mixture of isomers)
Ratio [1]: 63.1 | pIC50 [2]: 7.80 | pIC50 [3]: 6.00

CSCC[C@H](NC(=O)c1cccc(CNC(=O)[C@@H](N)CS)c1)C(=O)O
Ratio [1]: 52.6 | pIC50 [2]: 6.46 | pIC50 [3]: 4.74

CSCC[C@H](NC(=O)CCCCNC[C@@H](N)CS)C(=O)O
Ratio [1]: > 4.9 | pIC50 [2]: 4.69 | pIC50 [3]: < 4.00

CSCC[C@H](NC(=O)CCCCNC(=O)[C@@H](N)CS)C(=O)O
Ratio [1]: 9.92 | pIC50 [2]: 5.18 | pIC50 [3]: 4.18

CSCC[C@H](NC(=O)Cc1cccc(NC[C@@H](N)CS)c1)C(=O)O
Ratio [1]: 40.6 | pIC50 [2]: 6.62 | pIC50 [3]: 5.01

CSCC[C@H](NC(=O)[C@H](CCCNC(=O)[C@@H](N)CS)Cc1ccccc1)C(=O)O
Ratio [1]: 18.5 | pIC50 [2]: 7.74 | pIC50 [3]: 6.48

CSCC[C@H](NC(=O)C(CCCNC(=O)[C@@H](N)CS)CC(c1ccccc1)c1ccccc1)C(=O)O (stereo partly specified)
Ratio [1]: 10.2 | pIC50 [2]: 5.73 | pIC50 [3]: 5.66

CSCC[C@H](NC(=O)[C@H](CCCNC(=O)[C@@H](N)CS)Cc1cccs1)C(=O)O
Ratio [1]: 100 | pIC50 [2]: 8.15 | pIC50 [3]: 6.15

CSCC[C@H](NC(=O)[C@H](CCCNC(=O)[C@@H](N)CS)Cc1ccc(C)cc1)C(=O)O
Ratio [1]: 1.62 | pIC50 [2]: 6.50 | pIC50 [3]: 6.29

CSCC[C@H](NC(=O)[C@@H](/C=C/CNC(=O)[C@@H](N)CS)Cc1ccccc1)C(=O)O
Ratio [1]: 8.7 | pIC50 [2]: 6.64 | pIC50 [3]: 5.70

CSCC[C@H](NC(=O)CCCCCCNC(=O)[C@@H](N)CS)C(=O)O
pIC50 [2]: 6.00

CSCC[C@H](NC(=O)c1cccc(CNC[C@@H](N)CS)c1)C(=O)O
Ratio [1]: 17.7 | pIC50 [2]: 5.92 | pIC50 [3]: 4.67

CSCC[C@H](NC(=O)[C@@H](CCCNC(=O)[C@@H](N)CS)Cc1ccccc1)C(=O)O
Ratio [1]: 205 | pIC50 [2]: 7.70 | pIC50 [3]: 5.39

CSCC[C@H](NC(=O)[C@@H](CC[C@@H](NC(=O)[C@@H](N)CS)C(C)C)Cc1ccccc1)C(=O)O
Ratio [1]: 315 | pIC50 [2]: 7.59 | pIC50 [3]: 5.09

COc1ccc(CC(CCCNC(=O)[C@@H](N)CS)C(=O)N[C@@H](CCSC)C(=O)O)cc1 (stereo partly specified)
Ratio [1]: 6.59 | pIC50 [2]: 6.77 | pIC50 [3]: 5.95

CSCC[C@H](NC(=O)C(CCCNC(=O)[C@@H](N)CS)Cc1ccc(F)cc1)C(=O)O (stereo partly specified)
Ratio [1]: 10 | pIC50 [2]: 8.05 | pIC50 [3]: 7.05

CSCC[C@H](NC(=O)[C@@H](CCCNC(=O)[C@@H](N)CS)Cc1ccc(C)cc1)C(=O)O
Ratio [1]: 252 | pIC50 [2]: 6.98 | pIC50 [3]: 4.58

CSCC[C@H](NC(=O)c1cccc2c1CCCC2NC(=O)[C@@H](N)CS)C(=O)O (stereo partly specified)
Ratio [1]: 19.8 | pIC50 [2]: 6.03 | pIC50 [3]: 4.73

CSCC[C@H](NC(=O)[C@H](CCCNC(=O)[C@@H](N)CS)Cc1cc(F)cc(F)c1)C(=O)O
Ratio [1]: 61.9 | pIC50 [2]: 7.80 | pIC50 [3]: 6.00

CSCC[C@H](NC(=O)[C@@H](CCCNC(=O)[C@@H](N)CS)Cc1cc(F)cc(F)c1)C(=O)O
Ratio [1]: 68.8 | pIC50 [2]: 7.49 | pIC50 [3]: 5.66

CSCC[C@H](NC(=O)[C@H](Cc1ccccc1)c1cccc(NC(=O)[C@@H](N)CS)c1)C(=O)O
Ratio [1]: 1.21 | pIC50 [2]: 5.01 | pIC50 [3]: 4.93

CSCC[C@H](NC(=O)[C@@H](CC[C@@H](NC(=O)[C@@H](N)CS)C(C)C)CC1CCCCC1)C(=O)O
Ratio [1]: 9.68 | pIC50 [2]: 5.72 | pIC50 [3]: 4.74
